Some test systems named below: SN12C renal; A549 NSCLC; HL-60(TB) leukemia; SNB-19 CNS; EKVX NSCLC; T-47D breast; OVCAR-5 ovarian; UO-31 renal; RPMI-8226 leukemia; HCC-2998 colon.
Experiment in all cases: NCI tumour cell line growth inhibition, 48 h

These results are taken from PubChem BioAssay (NCI).

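Protocol summary: plate cells (96-well), add compound at 5 concentrations, incubate 48 h, interpolate endpoints linearly. Abbreviation: GI50, concentration required for 50% inhibition of growth. At the TGI there is no net growth.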 Some results are limits rather than exact numbers.

With `CCCC1C(C#N)(C#N)C(C#N)=C(N)C1(C)C(C)=O` (stereo not given), the TGI with SN12C renal, in the assay on A549 NSCLC, with HL-60(TB) leukemia, with SNB-19 CNS, with EKVX NSCLC and in the assay on T-47D breast was over 100 µM throughout. Moreover, the TGI in the assay on OVCAR-5 ovarian, in the assay with UO-31 renal, in the assay on RPMI-8226 leukemia and with HCC-2998 colon was over 100 µM each time.

On to `CCOC(=O)C12C(=O)CCN1CCc1ccccc1C2C` (stereo not given), for which the TGI in the assay on SN12C renal, with A549 NSCLC, with HL-60(TB) leukemia, with SNB-19 CNS, in the assay on EKVX NSCLC and in the assay with T-47D breast was over 100 µM in each case. For the same compound, the TGI in the assay on OVCAR-5 ovarian, with UO-31 renal and in the assay on RPMI-8226 leukemia was over 100 µM in each case.

Take `C/C(=N\NC(=O)N/N=C(\C)c1ccccn1)c1ccccn1`: the TGI in the assay with SN12C renal, with A549 NSCLC, in the assay on HL-60(TB) leukemia, in the assay on SNB-19 CNS, in the assay on EKVX NSCLC and with T-47D breast was over 100 µM throughout. Further, the TGI in the assay on OVCAR-5 ovarian, in the assay on UO-31 renal, in the assay on RPMI-8226 leukemia and in the assay with HCC-2998 colon was over 100 µM throughout.

Take `CCOC(=O)C1=CN(C(=O)c2ccccc2)CCC1Cc1ccccc1` (stereo not given): the TGI was 57.4 µM in the assay with SN12C renal; over 100 µM in the assay with A549 NSCLC; 32.2 µM with HL-60(TB) leukemia; over 100 µM in the assay on SNB-19 CNS; over 100 µM with EKVX NSCLC; 72.8 µM in the assay on T-47D breast. Further, the TGI with OVCAR-5 ovarian is over 100 µM; with UO-31 renal, 77.9 µM; with RPMI-8226 leukemia, 36.6 µM; in the assay with HCC-2998 colon it was 38.5 µM.

Take `CC(CN(C)C)C(=O)/C=C/c1ccc(Cl)c(Cl)c1` (stereo not given): the TGI in the assay with SN12C renal is 3.11 µM; in the assay on A549 NSCLC it was 13.8 µM; in the assay on HL-60(TB) leukemia, 4.46 µM; with SNB-19 CNS, 19.7 µM; with EKVX NSCLC, 3.11 µM; in the assay on T-47D breast it was over 100 µM. Besides, the TGI in the assay on OVCAR-5 ovarian was 4.07 µM; with UO-31 renal, 3.22 µM; in the assay on RPMI-8226 leukemia it was over 100 µM; in the assay on HCC-2998 colon, 3.48 µM.

Consider `COc1ccc(/C=C/C(c2cc(OC)c(OC)c(OC)c2)n2cncn2)cc1O` (stereo not given), for which the GI50 in the assay with SN12C renal is 7.19 µM; in the assay with A549 NSCLC it was 4.56 µM; in the assay with HL-60(TB) leukemia it was 0.0245 µM; in the assay with EKVX NSCLC, 6.07 µM; in the assay on T-47D breast it was over 100 µM; in the assay on OVCAR-5 ovarian it was 4.48 µM. Besides, the figures for the GI50 in the assay with RPMI-8226 leukemia and in the assay on HCC-2998 colon were 0.037 µM and 3 µM, respectively. Moreover, the TGI was over 100 µM in the assay on SN12C renal; over 100 µM with A549 NSCLC; 0.0627 µM in the assay with HL-60(TB) leukemia; over 100 µM in the assay with EKVX NSCLC; over 100 µM with T-47D breast; 72.6 µM in the assay with OVCAR-5 ovarian. Moreover, the TGI in the assay on RPMI-8226 leukemia was 42.2 µM; in the assay on HCC-2998 colon, over 100 µM.

Take `Cc1[nH]c(=O)[nH]c(=O)c1C(=O)N(CCO)Cc1ccccc1`: the TGI with SN12C renal, in the assay on HL-60(TB) leukemia, in the assay on SNB-19 CNS, in the assay on EKVX NSCLC, with T-47D breast and with OVCAR-5 ovarian was over 100 µM in each case. The TGI in the assay with UO-31 renal, in the assay with RPMI-8226 leukemia and in the assay on HCC-2998 colon was over 100 µM throughout.

Take `Cc1nn(C(=O)c2ccc(Cl)cc2)c2c1C(c1ccco1)SC(N)=N2` (stereo not given): the TGI in the assay on SN12C renal, in the assay on A549 NSCLC, in the assay with HL-60(TB) leukemia, in the assay with SNB-19 CNS, with EKVX NSCLC and with T-47D breast was over 10 µM throughout. For the same compound, the TGI in the assay on OVCAR-5 ovarian, with RPMI-8226 leukemia and in the assay with HCC-2998 colon was over 10 µM throughout.

Take `COC(=O)C(N)CCCC(N)C(=O)NC(C)C(=O)NC(CCC(=O)NCCCNc1ccc([N+](=O)[O-])c2[nH]c3ccccc3c(=O)c12)C(N)=O` (stereo not given): the TGI worked out at 12.3 µM in the assay with A549 NSCLC; 15 µM in the assay on SNB-19 CNS; 20.2 µM in the assay with EKVX NSCLC; 33.9 µM in the assay with T-47D breast; 22.7 µM with OVCAR-5 ovarian; 13.8 µM with UO-31 renal. Also, the TGI with RPMI-8226 leukemia is 14 µM; with HCC-2998 colon, 21.8 µM.

`CCOC(=O)c1ccc(NC(NC(=O)CC)(C(F)(F)F)C(F)(F)F)cc1`: the TGI in the assay with A549 NSCLC, with HL-60(TB) leukemia, with SNB-19 CNS, in the assay with EKVX NSCLC, in the assay with T-47D breast and in the assay with OVCAR-5 ovarian was over 100 µM throughout. The TGI in the assay on UO-31 renal, with RPMI-8226 leukemia and in the assay on HCC-2998 colon was over 100 µM in each case.

Turning to `Cc1ccnc2sc3ccccc3c(=O)c12`, the TGI is over 100 µM with SN12C renal; over 100 µM with HL-60(TB) leukemia; over 100 µM with SNB-19 CNS; 94.4 µM in the assay on EKVX NSCLC; over 100 µM with T-47D breast; over 100 µM in the assay on OVCAR-5 ovarian. The values for the TGI in the assay with UO-31 renal, with RPMI-8226 leukemia and in the assay on HCC-2998 colon were 81.8 µM, over 100 µM and over 100 µM, respectively.

`O=C1/C(=C2\SCC(=O)N2c2ccccc2)SC(=S)N1c1ccccc1`: the TGI in the assay on SN12C renal was 68.6 µM; with A549 NSCLC it was over 100 µM; in the assay on HL-60(TB) leukemia, over 100 µM; in the assay with SNB-19 CNS, over 100 µM; in the assay with EKVX NSCLC it was 82 µM; with T-47D breast it was over 100 µM. The TGI with OVCAR-5 ovarian is over 100 µM; in the assay on RPMI-8226 leukemia, over 100 µM; in the assay on HCC-2998 colon, 62.1 µM.

Regarding `S=C1CSc2c(cnc3ccccc23)N1`, the TGI with SN12C renal, in the assay on A549 NSCLC, in the assay with HL-60(TB) leukemia, in the assay with SNB-19 CNS, in the assay on EKVX NSCLC and in the assay on T-47D breast was over 100 µM each time. For the same compound, the TGI in the assay on OVCAR-5 ovarian, with UO-31 renal and in the assay with RPMI-8226 leukemia was over 100 µM each time.

As for `c1ccc2nn(C3CCCCO3)nc2c1` (stereo not given), the TGI in the assay with SN12C renal, in the assay on A549 NSCLC, in the assay with SNB-19 CNS, with EKVX NSCLC, in the assay on T-47D breast and in the assay with OVCAR-5 ovarian was over 100 µM in each case. In addition, the TGI with UO-31 renal and in the assay on HCC-2998 colon was over 100 µM in each case.
